Data taken from ChEMBL document CHEMBL1773061, “Chiral sulfoxides as metabolites of 2-thioimidazole-based p38α mitogen-activated protein kinase inhibitors: enantioselective synthesis and biological evaluation” (J Med Chem, 2011).

What follows are compounds tested against T1, Mitogen-activated protein kinase 14 (Homo sapiens, UniProt Q16539) (assay: Inhibition of p38 alpha MAPK in human whole blood assessed as phosphorylation of ATF-2 by immunosorbent non-radioactive enzyme assay).
Type: tissue-based

T1 sequence (Q16539 whole entry): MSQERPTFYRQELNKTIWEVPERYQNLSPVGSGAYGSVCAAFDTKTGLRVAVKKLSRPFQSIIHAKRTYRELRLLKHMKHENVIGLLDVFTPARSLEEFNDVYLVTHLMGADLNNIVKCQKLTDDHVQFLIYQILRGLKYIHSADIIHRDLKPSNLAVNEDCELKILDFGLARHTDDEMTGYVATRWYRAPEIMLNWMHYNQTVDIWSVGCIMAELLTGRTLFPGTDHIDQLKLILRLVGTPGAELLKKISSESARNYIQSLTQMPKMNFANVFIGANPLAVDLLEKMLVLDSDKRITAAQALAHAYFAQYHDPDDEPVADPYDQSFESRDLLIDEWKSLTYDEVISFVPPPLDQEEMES

Row | SMILES | IC50
1 | CC(C)Nc1cc(-c2[nH]c([S+](C)[O-])nc2-c2ccc(F)cc2)ccn1 (racemic) | 2 nM
2 | CC(=O)Nc1cc(-c2c(-c3ccc(F)cc3)nc([S+](C)[O-])n2C)ccn1 (racemic) | 1070 nM
3 | CC(C)Nc1cc(-c2[nH]c(SC(C)C)nc2-c2ccc(F)cc2)ccn1 | 4 nM
4 | CC(C)Nc1cc(-c2nc([S@+]([O-])C(C)C)[nH]c2-c2ccc(F)cc2)ccn1 | 4 nM
5 | C[S@@+]([O-])c1nc(-c2ccc(F)cc2)c(-c2ccnc(NC3CCCCC3)c2)[nH]1 | 29 nM
6 | CSc1nc(-c2ccc(F)cc2)c(-c2ccnc(NC(C)C)c2)[nH]1 | 2 nM
7 | C[C@@H](Nc1cc(-c2nc([S@@+](C)[O-])[nH]c2-c2ccc(F)cc2)ccn1)c1ccccc1 | 168 nM
8 | CC(C)Nc1cc(-c2nc([S@@+](C)[O-])[nH]c2-c2ccc(F)cc2)ccn1 | 12 nM
9 | CC(C)[C@H](C)Nc1cc(-c2[nH]c([S@+](C)[O-])nc2-c2ccc(F)cc2)ccn1 | 27 nM
10 | C[C@@H](Nc1cc(-c2[nH]c([S@+](C)[O-])nc2-c2ccc(F)cc2)ccn1)c1ccccc1 | 200 nM
11 | CC(=O)Nc1cc(-c2nc([S@@+](C)[O-])[nH]c2-c2ccc(F)cc2)ccn1 | 161 nM
12 | CC(=O)Nc1cc(-c2c(-c3ccc(F)cc3)nc([S@+](C)[O-])n2C)ccn1 | 1260 nM
13 | CSc1nc(-c2ccc(F)cc2)c(-c2ccnc(NC(C)=O)c2)[nH]1 | 37 nM
14 | CC(C)Sc1nc(-c2ccnc(NC3CCCCC3)c2)c(-c2ccc(F)cc2)[nH]1 | 12 nM
15 | CSc1nc(-c2ccc(F)cc2)c(-c2ccnc(N[C@@H](C)C(C)C)c2)[nH]1 | 26 nM
16 | C[S+]([O-])c1nc(-c2ccc(F)cc2)c(-c2ccnc(NC(=O)Cc3ccc(F)cc3)c2)[nH]1 (racemic) | 69 nM

Row | SMILES | IC50
17 | CC(=O)Nc1cc(-c2c(-c3ccc(F)cc3)nc([S@@+](C)[O-])n2C)ccn1 | 1030 nM
18 | CC(=O)Nc1cc(-c2[nH]c([S@+](C)[O-])nc2-c2ccc(F)cc2)ccn1 | 197 nM
19 | CC(C)[C@@H](C)Nc1cc(-c2[nH]c([S+](C)[O-])nc2-c2ccc(F)cc2)ccn1 (mixture of isomers) | 61 nM
20 | C[S@@+]([O-])c1nc(-c2ccnc(NC3CCOCC3)c2)c(-c2ccc(F)cc2)[nH]1 | 11 nM
21 | CC(=O)Nc1cc(-c2[nH]c([S+](C)[O-])nc2-c2ccc(F)cc2)ccn1 (racemic) | 403 nM
22 | C[C@@H](Nc1cc(-c2[nH]c([S+](C)[O-])nc2-c2ccc(F)cc2)ccn1)c1ccccc1 (mixture of isomers) | 207 nM
23 | C[C@H](Nc1cc(-c2[nH]c([S@@+](C)[O-])nc2-c2ccc(F)cc2)ccn1)c1ccccc1 | 25 nM
24 | C[C@H](Nc1cc(-c2[nH]c([S+](C)[O-])nc2-c2ccc(F)cc2)ccn1)c1ccccc1 (mixture of isomers) | 95 nM
25 | CC(C)[C@@H](C)Nc1cc(-c2nc([S@+](C)[O-])[nH]c2-c2ccc(F)cc2)ccn1 | 36 nM
26 | CC(C)Nc1cc(-c2[nH]c([S+]([O-])C(C)C)nc2-c2ccc(F)cc2)ccn1 (racemic) | 3 nM
27 | CC(C)[C@@H](C)Nc1cc(-c2[nH]c([S@@+](C)[O-])nc2-c2ccc(F)cc2)ccn1 | 31 nM
28 | CC(C)[C@H](C)Nc1cc(-c2[nH]c([S+](C)[O-])nc2-c2ccc(F)cc2)ccn1 (mixture of isomers) | 17 nM
29 | CC(C)[C@H](C)Nc1cc(-c2nc([S@@+](C)[O-])[nH]c2-c2ccc(F)cc2)ccn1 | 19 nM
30 | C[S+]([O-])c1nc(-c2ccc(F)cc2)c(-c2ccnc(NC3CCOCC3)c2)[nH]1 (racemic) | 12 nM
31 | CSc1nc(-c2ccc(F)cc2)c(-c2ccnc(N[C@H](C)C(C)C)c2)[nH]1 | 40 nM

What follows are compounds tested against T1, Mitogen-activated protein kinase 14 (assay: Inhibition of p38 alpha MAPK in human whole blood assessed as phosphorylation of ATF-2 by immunosorbent non-radioactive enzyme assay relative to SB203580).
Type: tissue-based

Row | SMILES | Ratio IC50
32 | CC(C)Nc1cc(-c2[nH]c([S+](C)[O-])nc2-c2ccc(F)cc2)ccn1 (racemic) | 7.5
33 | CC(=O)Nc1cc(-c2c(-c3ccc(F)cc3)nc([S+](C)[O-])n2C)ccn1 (racemic) | 0.042
34 | CC(C)Nc1cc(-c2[nH]c(SC(C)C)nc2-c2ccc(F)cc2)ccn1 | 3.75
35 | C[S@@+]([O-])c1nc(-c2ccc(F)cc2)c(-c2ccnc(NC3CCCCC3)c2)[nH]1 | 2.55
36 | CSc1nc(-c2ccc(F)cc2)c(-c2ccnc(NC(C)C)c2)[nH]1 | 18
37 | CC(C)[C@H](C)Nc1cc(-c2[nH]c([S@+](C)[O-])nc2-c2ccc(F)cc2)ccn1 | 2.15
38 | C[C@@H](Nc1cc(-c2[nH]c([S@+](C)[O-])nc2-c2ccc(F)cc2)ccn1)c1ccccc1 | 0.42
39 | CC(=O)Nc1cc(-c2c(-c3ccc(F)cc3)nc([S@+](C)[O-])n2C)ccn1 | 0.028
40 | CSc1nc(-c2ccc(F)cc2)c(-c2ccnc(NC(C)=O)c2)[nH]1 | 2.11
41 | CSc1nc(-c2ccc(F)cc2)c(-c2ccnc(N[C@@H](C)C(C)C)c2)[nH]1 | 1.81
42 | C[S+]([O-])c1nc(-c2ccc(F)cc2)c(-c2ccnc(NC(=O)Cc3ccc(F)cc3)c2)[nH]1 (racemic) | 1.16
43 | CC(=O)Nc1cc(-c2c(-c3ccc(F)cc3)nc([S@@+](C)[O-])n2C)ccn1 | 0.035
44 | CC(=O)Nc1cc(-c2[nH]c([S@+](C)[O-])nc2-c2ccc(F)cc2)ccn1 | 0.45
45 | CC(C)[C@@H](C)Nc1cc(-c2[nH]c([S+](C)[O-])nc2-c2ccc(F)cc2)ccn1 (mixture of isomers) | 1.18
46 | CC(=O)Nc1cc(-c2[nH]c([S+](C)[O-])nc2-c2ccc(F)cc2)ccn1 (racemic) | 0.1
47 | C[C@@H](Nc1cc(-c2[nH]c([S+](C)[O-])nc2-c2ccc(F)cc2)ccn1)c1ccccc1 (mixture of isomers) | 0.28
48 | C[C@H](Nc1cc(-c2[nH]c([S@@+](C)[O-])nc2-c2ccc(F)cc2)ccn1)c1ccccc1 | 1.12
49 | C[C@H](Nc1cc(-c2[nH]c([S+](C)[O-])nc2-c2ccc(F)cc2)ccn1)c1ccccc1 (mixture of isomers) | 0.53
50 | CC(C)Nc1cc(-c2[nH]c([S+]([O-])C(C)C)nc2-c2ccc(F)cc2)ccn1 (racemic) | 5
51 | CC(C)[C@@H](C)Nc1cc(-c2[nH]c([S@@+](C)[O-])nc2-c2ccc(F)cc2)ccn1 | 2.32
52 | CC(C)[C@H](C)Nc1cc(-c2[nH]c([S+](C)[O-])nc2-c2ccc(F)cc2)ccn1 (mixture of isomers) | 3.41
53 | C[S+]([O-])c1nc(-c2ccc(F)cc2)c(-c2ccnc(NC3CCOCC3)c2)[nH]1 (racemic) | 4.67
54 | CSc1nc(-c2ccc(F)cc2)c(-c2ccnc(N[C@H](C)C(C)C)c2)[nH]1 | 1.8

Each compound was assayed against T1, Mitogen-activated protein kinase 14 (assay: Inhibition of p38 alpha MAPK in human whole blood assessed as suppression of LPS-induced TNF-alpha release by immunosorbent non-radioactive enzyme assay).
Type: tissue-based

Row | SMILES | IC50
55 | CC(C)Nc1cc(-c2[nH]c([S+](C)[O-])nc2-c2ccc(F)cc2)ccn1 (racemic) | 470 nM
56 | CC(C)Nc1cc(-c2[nH]c(SC(C)C)nc2-c2ccc(F)cc2)ccn1 | 120 nM
57 | CC(C)Nc1cc(-c2nc([S@+]([O-])C(C)C)[nH]c2-c2ccc(F)cc2)ccn1 | 450 nM
58 | C[S@@+]([O-])c1nc(-c2ccc(F)cc2)c(-c2ccnc(NC3CCCCC3)c2)[nH]1 | 550 nM
59 | CSc1nc(-c2ccc(F)cc2)c(-c2ccnc(NC(C)C)c2)[nH]1 | 130 nM
60 | CC(C)Nc1cc(-c2nc([S@@+](C)[O-])[nH]c2-c2ccc(F)cc2)ccn1 | 530 nM
61 | CC(C)[C@H](C)Nc1cc(-c2[nH]c([S@+](C)[O-])nc2-c2ccc(F)cc2)ccn1 | 250 nM
62 | CC(C)Sc1nc(-c2ccnc(NC3CCCCC3)c2)c(-c2ccc(F)cc2)[nH]1 | 650 nM
63 | CSc1nc(-c2ccc(F)cc2)c(-c2ccnc(N[C@@H](C)C(C)C)c2)[nH]1 | 50 nM
64 | C[S+]([O-])c1nc(-c2ccc(F)cc2)c(-c2ccnc(NC(=O)Cc3ccc(F)cc3)c2)[nH]1 (racemic) | 5550 nM
65 | CC(C)[C@@H](C)Nc1cc(-c2[nH]c([S+](C)[O-])nc2-c2ccc(F)cc2)ccn1 (mixture of isomers) | 1340 nM
66 | C[S@@+]([O-])c1nc(-c2ccnc(NC3CCOCC3)c2)c(-c2ccc(F)cc2)[nH]1 | 790 nM
67 | C[C@H](Nc1cc(-c2[nH]c([S@@+](C)[O-])nc2-c2ccc(F)cc2)ccn1)c1ccccc1 | 10000 nM
68 | C[C@H](Nc1cc(-c2[nH]c([S+](C)[O-])nc2-c2ccc(F)cc2)ccn1)c1ccccc1 (mixture of isomers) | 6280 nM
69 | CC(C)[C@@H](C)Nc1cc(-c2nc([S@+](C)[O-])[nH]c2-c2ccc(F)cc2)ccn1 | 750 nM
70 | CC(C)Nc1cc(-c2[nH]c([S+]([O-])C(C)C)nc2-c2ccc(F)cc2)ccn1 (racemic) | 250 nM
71 | CC(C)[C@@H](C)Nc1cc(-c2[nH]c([S@@+](C)[O-])nc2-c2ccc(F)cc2)ccn1 | 900 nM
72 | CC(C)[C@H](C)Nc1cc(-c2[nH]c([S+](C)[O-])nc2-c2ccc(F)cc2)ccn1 (mixture of isomers) | 150 nM
73 | CC(C)[C@H](C)Nc1cc(-c2nc([S@@+](C)[O-])[nH]c2-c2ccc(F)cc2)ccn1 | 200 nM
74 | C[S+]([O-])c1nc(-c2ccc(F)cc2)c(-c2ccnc(NC3CCOCC3)c2)[nH]1 (racemic) | 340 nM
75 | CSc1nc(-c2ccc(F)cc2)c(-c2ccnc(N[C@H](C)C(C)C)c2)[nH]1 | 180 nM

The compounds below were run against T1, Mitogen-activated protein kinase 14 (assay: Inhibition of p38 alpha MAPK in human whole blood assessed as suppression of LPS-induced TNF-alpha release by immunosorbent non-radioactive enzyme assay relative to SB203580).
Type: tissue-based

Row | SMILES | Ratio IC50
76 | CC(C)Nc1cc(-c2[nH]c([S+](C)[O-])nc2-c2ccc(F)cc2)ccn1 (racemic) | 2.62
77 | CC(C)Nc1cc(-c2[nH]c(SC(C)C)nc2-c2ccc(F)cc2)ccn1 | 19.4
78 | C[S@@+]([O-])c1nc(-c2ccc(F)cc2)c(-c2ccnc(NC3CCCCC3)c2)[nH]1 | 3.09
79 | CSc1nc(-c2ccc(F)cc2)c(-c2ccnc(NC(C)C)c2)[nH]1 | 12
80 | CC(C)[C@H](C)Nc1cc(-c2[nH]c([S@+](C)[O-])nc2-c2ccc(F)cc2)ccn1 | 6.8
81 | CSc1nc(-c2ccc(F)cc2)c(-c2ccnc(N[C@@H](C)C(C)C)c2)[nH]1 | 31.2
82 | C[S+]([O-])c1nc(-c2ccc(F)cc2)c(-c2ccnc(NC(=O)Cc3ccc(F)cc3)c2)[nH]1 (racemic) | 0.31
83 | CC(C)[C@@H](C)Nc1cc(-c2[nH]c([S+](C)[O-])nc2-c2ccc(F)cc2)ccn1 (mixture of isomers) | 0.92
84 | C[C@H](Nc1cc(-c2[nH]c([S@@+](C)[O-])nc2-c2ccc(F)cc2)ccn1)c1ccccc1 | 0.16
85 | C[C@H](Nc1cc(-c2[nH]c([S+](C)[O-])nc2-c2ccc(F)cc2)ccn1)c1ccccc1 (mixture of isomers) | 0.25
86 | CC(C)Nc1cc(-c2[nH]c([S+]([O-])C(C)C)nc2-c2ccc(F)cc2)ccn1 (racemic) | 4.92
87 | CC(C)[C@@H](C)Nc1cc(-c2[nH]c([S@@+](C)[O-])nc2-c2ccc(F)cc2)ccn1 | 1.72
88 | CC(C)[C@H](C)Nc1cc(-c2[nH]c([S+](C)[O-])nc2-c2ccc(F)cc2)ccn1 (mixture of isomers) | 10.4
89 | C[S+]([O-])c1nc(-c2ccc(F)cc2)c(-c2ccnc(NC3CCOCC3)c2)[nH]1 (racemic) | 3.62
90 | CSc1nc(-c2ccc(F)cc2)c(-c2ccnc(N[C@H](C)C(C)C)c2)[nH]1 | 8.67
